The values that follow come from article PMC11705080 (2025).

The subject of experiment [1] is FRET-1 (DNA, hairpin) CGCGAATTCGCGAAAAACGCGAATTCGCG
The experiment can be described thus: fluorescence (FRET) melting, Bard equation. The following applies: 1.0 μM DNA; r = 0–7; derived from Tm fraction bound; 37 °C pre-incubation.

Experiment [2] deals with poly[d(A-T)2] (DNA, polymer) AT. As to the kind of experiment: limited-bound ethidium bromide fluorescence quenching, Hill model. Conditions: Na+ (40 mM NaCl); 80 mM HEPES pH 7.2; 5 μM EtBr, 25 μM DNA; EtBr fluorescence quenched; per base.
Experiment [3] relates to FRET-4 (DNA, hairpin) ATGGCCGGCCGGAAAAACCGGCCGGCCAT
The experiment can be described thus: fluorescence (FRET) melting. The following applies: 10 μM compound (r = 10), 1.0 μM DNA; control Tm 83.0 °C; condensation; +1.21 °C at r = 2.5.

For experiment [4], the system named is F-4 (DNA, hairpin) ATGGCCGGCCGGAAAAACCGGCCGGCCAT
The experiment can be described thus: MST instrument, initial fluorescence, Hill model. Conditions: Na+ (25 mM NaCl); 80 mM HEPES; 1 μM DNA; low 10^–5 M; fluorescence decrease ascribed to DNA condensation.

The test system of experiment [5] is poly[d(A-T)2] (DNA, polymer) AT. The experiment can be described thus: ethidium bromide displacement (fluorescence). Conditions: 12.5 μM EtBr displaced, 12.5 μM DNA, 1 h, per base.
For experiment [6], the system named is F-3 (DNA, hairpin) ATCGGCGCCGATAAAAAATCGGCGCCGAT
As to the kind of experiment: MST instrument, initial fluorescence, Hill model. Conditions: Na+ (25 mM NaCl); 80 mM HEPES; 1 μM DNA; low 10^–5 M; fluorescence decrease ascribed to DNA condensation.

Experiment [7] deals with poly[d(G-C)2] (DNA, polymer) GC. As to the kind of experiment: ethidium bromide displacement (fluorescence). The following applies: 12.5 μM EtBr displaced, 12.5 μM DNA, 1 h, per base.
Experiment [8] concerns FRET-2 (DNA, hairpin) GCATTATAATGCAAAAAGCATTATAATGC
As to the kind of experiment: fluorescence (FRET) melting. The following applies: 10 μM compound (r = 10), 1.0 μM DNA; control Tm 61.5 °C.

The subject of experiment [9] is F-1 (DNA, hairpin) CGCGAATTCGCGAAAAACGCGAATTCGCG
As to the kind of experiment: MST instrument, initial fluorescence, Hill model. The following applies: Na+ (25 mM NaCl); 80 mM HEPES; 1 μM DNA; low 10^–5 M; fluorescence decrease ascribed to DNA condensation.

Experiment [10] deals with FRET-1 (DNA, hairpin) CGCGAATTCGCGAAAAACGCGAATTCGCG
The experiment can be described thus: fluorescence (FRET) melting. Conditions: 7 μM compound (r = 7), 1.0 μM DNA; control Tm 74.9 °C.

Experiment [11] deals with FRET-3 (DNA, hairpin) ATCGGCGCCGATAAAAAATCGGCGCCGAT
As to the kind of experiment: fluorescence (FRET) melting. The following applies: 10 μM compound (r = 10), 1.0 μM DNA; control Tm 79.7 °C; condensation; +0.48 °C at r = 2.

In experiment [12] the test system is poly[d(G-C)2] (DNA, polymer) GC. As to the kind of experiment: limited-bound ethidium bromide fluorescence quenching, Hill model. The following applies: Na+ (40 mM NaCl); 80 mM HEPES pH 7.2; 5 μM EtBr, 25 μM DNA; EtBr fluorescence quenched; per base.
Experiment [13] relates to FRET-2 (DNA, hairpin) GCATTATAATGCAAAAAGCATTATAATGC
The experiment can be described thus: fluorescence (FRET) melting, Bard equation. The following applies: 1.0 μM DNA; r = 0–10; derived from Tm fraction bound; 37 °C pre-incubation.

The subject of experiment [14] is F-2 (DNA, hairpin) GCATTATAATGCAAAAAGCATTATAATGC
As to the kind of experiment: MST instrument, initial fluorescence, Hill model. The following applies: Na+ (25 mM NaCl); 80 mM HEPES; 1 μM DNA; fluorescence decrease ascribed to DNA condensation.

Setting [15] is: apparent, complex prepared in situ, Kapp = Kb × 12.6/C50.

By EC50 is commonly meant the concentration needed to bring the measured effect to its halfway point. The low end stands for an effect from little substance, the high end for a need for much substance. Turning to `O=[N+]([O-])[O-].O=[N+]([O-])[O-].O=[N+]([O-])[O-].O=[N+]([O-])[O-].[Cu+2].[Cu+2].c1cnc2c(c1)cc(-n1cc(CCCCc3cn(-c4cc5cccnc5c5ncccc45)nn3)nn1)c1cccnc12`, the results for the Kb in experiment [1] and in [13] were 1.06e+07 M⁻¹ and 4.38e+08 M⁻¹, respectively. For the same compound, the “Q (EC50)” value in [2] is 11.18 µM; in experiment [12], 12.86 µM. For the same compound, the “Δ TM” value was “- 6.3 °C” in [3], “+ 3.6 °C” in experiment [8], “+ 4.5 °C” in [10] and “- 3.7 °C” in experiment [11]. In addition, the half-maximal effective concentration (EC50) is 11.25 µM in experiment [4], 11.39 µM in [6], 11.92 µM in experiment [9] and 9.2 × 10^–6 M in experiment [14]. The C50 in experiment [5] worked out at 3.911 µM; in experiment [7] it was 6.318 µM. Besides, the Kapp was determined as 2.84e+07 M⁻¹ in experiment [5] (setting [15]) and 1.75e+07 M⁻¹ in [7] (setting [15]).
